Reference: US9249453B2, “Method for identifying a malodor inhibitor” (Kao Corporation, priority 2011, dated 2016)
Entries after “also recorded” stand apart in the source; their conditions may differ.

How the values were obtained:
OR5K1 [1] = biological target: T1, OR5K1 (Homo sapiens, UniProt Q8NHB7); assay: Luciferase reporter assay: odorant response of OR5K1 expressed in HEK293 cells; format: cell-based; conditions: for response of olfactory receptor at different concentration: 0, 3, 10, 30, 100, 300, and 1000 μM odorant, OR5K1, FIG. 2/3
T1 construct: expressed in transfected cells; host or cells: HEK293
T1 sequence (Q8NHB7 1-308): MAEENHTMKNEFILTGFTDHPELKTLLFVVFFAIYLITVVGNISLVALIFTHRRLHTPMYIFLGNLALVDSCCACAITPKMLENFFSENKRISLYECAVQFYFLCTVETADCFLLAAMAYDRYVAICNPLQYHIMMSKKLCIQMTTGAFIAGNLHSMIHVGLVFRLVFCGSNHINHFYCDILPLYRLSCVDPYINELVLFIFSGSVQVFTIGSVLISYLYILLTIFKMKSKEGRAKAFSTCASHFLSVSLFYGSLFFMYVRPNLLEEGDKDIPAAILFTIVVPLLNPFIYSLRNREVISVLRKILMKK
Method: (§1) Each of the 369 types of human olfactory receptors was expressed in HEK293 cells. A reaction solution having a composition shown in Table 1 was prepared on a clean bench, and left to stand for 15 minutes. The solution was dispensed to each well of a 96-well plate (BD). Subsequently, HEK293 cells (100 μL, 3×10^5 cells/cm^2) were seeded in each well and cultured for 24 hours in an incubator at 37° C. and under 5% CO2 conditions.
(§2) The olfactory receptor expressed in HEK293 cells activates adenylate cyclase with the aid of Gαs present in cells, to thereby increase intracellular cAMP level. In this study, odorant response was measured by a luciferase reporter gene assay which monitored the intracellular cAMP level as the luminescence value derived from a firefly luciferase gene (fluc2P-CRE-hygro). Also, a Renilla luciferase gene fused downstream of a CMV promoter (hRluc-CMV) was also transfected to HEK293 cells as an internal standard to correct errors in gene transfer efficiency and number of cells.
(§3) The culture medium was removed from the culture plate produced in (3) above, and a solution (75 μL) containing an odorant substance (1 mM skatole) in CD293 medium (Invitrogen) was added to each well. […] Luciferase activity was measured by means of a Dual-Glo™ luciferase assay system (promega) according to an instruction manual thereof. The luminescence value derived from firefly luciferase induced by odorant stimulation was divided by the luminescence value of cells which were not stimulated with odorants. […]
(§4) In a manner similar to that employed in Example 1, each of olfactory receptor OR2W1 (SEQ ID NO: 2), OR5K1 (SEQ ID NO: 4), OR5P3 (SEQ ID NO: 6), and OR8H1 (SEQ ID NO: 8) was expressed with RTP1S mutant (SEQ ID NO: 12) in HEK293 cells. The response of each receptor to skatole (0, 3, 10, 30, 100, 300, and 1000 μM) was determined.
(§5) In a manner similar to that employed in Example 2, the response of each olfactory receptor to skatole and indole (each 0, 3, 10, 30, 100, 300, and 1000 μM) was determined.

OR2W1 [2] = biological target: T2, OR2W1 (Homo sapiens, UniProt Q9Y3N9); assay: Luciferase reporter assay: odorant response of OR2W1 expressed in HEK293 cells; format: cell-based; conditions: for response of olfactory receptor at different concentration: 0, 3, 10, 30, 100, 300, and 1000 μM odorant, OR2W1, FIG. 2/3
T2 construct: expressed in transfected cells; host or cells: HEK293
T2 sequence (Q9Y3N9 1-320): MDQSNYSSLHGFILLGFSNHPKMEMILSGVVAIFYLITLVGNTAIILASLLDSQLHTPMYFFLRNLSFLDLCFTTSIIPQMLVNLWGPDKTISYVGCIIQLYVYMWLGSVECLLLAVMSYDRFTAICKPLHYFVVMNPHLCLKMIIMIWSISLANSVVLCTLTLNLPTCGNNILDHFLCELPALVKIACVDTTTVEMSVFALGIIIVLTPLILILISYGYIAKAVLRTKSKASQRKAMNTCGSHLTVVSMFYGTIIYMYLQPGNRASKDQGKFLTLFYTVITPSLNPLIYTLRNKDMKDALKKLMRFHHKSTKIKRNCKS
Method: as §1, §2, §3, §4, §5

OR8H1 [3] = biological target: T3, OR8H1 (Homo sapiens, UniProt Q8NGG4); assay: Luciferase reporter assay: odorant response of OR8H1 expressed in HEK293 cells; format: cell-based; conditions: for response of olfactory receptor at different concentration: 0, 3, 10, 30, 100, 300, and 1000 μM odorant, OR8H1, FIG. 2/3
T3 construct: expressed in transfected cells; host or cells: HEK293
T3 sequence (Q8NGG4 1-311): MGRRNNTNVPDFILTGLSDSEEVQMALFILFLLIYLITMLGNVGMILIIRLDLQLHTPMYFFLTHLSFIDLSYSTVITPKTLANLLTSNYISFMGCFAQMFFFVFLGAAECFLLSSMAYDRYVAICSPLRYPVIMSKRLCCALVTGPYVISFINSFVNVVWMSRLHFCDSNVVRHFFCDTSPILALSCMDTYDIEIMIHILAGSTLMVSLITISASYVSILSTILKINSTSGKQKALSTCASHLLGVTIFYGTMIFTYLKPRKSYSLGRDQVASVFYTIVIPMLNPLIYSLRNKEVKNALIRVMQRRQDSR
Method: as §1, §2, §3, §4, §5

OR5P3 [4] = biological target: T4, OR5P3 (Homo sapiens, UniProt Q8WZ94); assay: Luciferase reporter assay: odorant response of OR5P3 expressed in HEK293 cells; format: cell-based; conditions: for response of olfactory receptor at different concentration: 0, 3, 10, 30, 100, 300, and 1000 μM odorant, OR5P3, FIG. 2/3
T4 construct: expressed in transfected cells; host or cells: HEK293
T4 sequence (Q8WZ94 1-311): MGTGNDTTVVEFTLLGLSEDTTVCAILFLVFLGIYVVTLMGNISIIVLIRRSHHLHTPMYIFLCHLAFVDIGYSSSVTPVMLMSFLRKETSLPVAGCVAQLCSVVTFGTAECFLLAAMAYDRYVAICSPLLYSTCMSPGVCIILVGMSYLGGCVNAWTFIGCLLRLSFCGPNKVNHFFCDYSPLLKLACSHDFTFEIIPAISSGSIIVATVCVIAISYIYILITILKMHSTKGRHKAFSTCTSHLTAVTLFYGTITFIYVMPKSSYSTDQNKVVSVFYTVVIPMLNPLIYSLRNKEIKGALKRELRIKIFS
Method: as §1, §2, §3, §4, §5

[5] = Sensory test by panelists: suppression of skatole odor; format: in vivo; conditions: Example 6: test substance diluted by 1% with propylene glycol, n=3, FIG. 5
Method: A cotton ball was put into a glass bottle (Hakuyo. […] The glass bottle was left to stand for one night at room temperature, to thereby sufficiently evaporate the odorant molecule. The sensory test was performed by four panelists. In the case where skatole alone was added to a glass bottle, the odor intensity was rated to 5. Then, the malodor intensity in the case where skatole and a test substance were added was evaluated with a rating of 0 to 10 (by 0.5) (i.e., 20 ratings) In order to investigate specificity of malodor suppressing effect of a test substance identified in Example 4, the sensory test was also performed with hexanoic acid, a malodorous compound but structurally differs from skatole. In the experiment, hexanoic acid diluted by 1% with propylene glycol was used as a malodorous compound, and methyl dihydrojasmonate diluted by 1% with propylene glycol was used as a test substance.

[6] = Sensory test by panelists: suppression of hexanoic acid odor; format: in vivo; conditions: Example 6: hexanoic acid 1% and test substance 1% in propylene glycol, n=3, FIG. 5
Method: A cotton ball was put into a glass bottle (Hakuyo. Glass No. 11, capacity: 110 mL), and skatole diluted by 0.001% with propylene glycol (20 μL) and a test substance also diluted by 0.001% (20 μL) were added to the cotton ball. The glass bottle was left to stand for one night at room temperature, to thereby sufficiently evaporate the odorant molecule. The sensory test was performed by four panelists. In the case where skatole alone was added to a glass bottle, the odor intensity was rated to 5. Then, the malodor intensity in the case where skatole and a test substance were added was evaluated with a rating of 0 to 10 (by 0.5) (i.e., 20 ratings) In order to investigate specificity of malodor suppressing effect of a test substance identified in Example 4, the sensory test was also performed with hexanoic acid, a malodorous compound but structurally differs from skatole. In the experiment, hexanoic acid diluted by 1% with propylene glycol was used as a malodorous compound, and methyl dihydrojasmonate diluted by 1% with propylene glycol was used as a test substance.

OR8H1 [7] = biological target: T3, OR8H1; assay: Luciferase reporter assay: suppression of the skatole response of OR8H1 expressed in HEK293 cells; format: cell-based; conditions: 4 h; test substance 100 μM mixed with 300 μM skatole, HEK293 cells expressing OR8H1; read-out: Inhibition rate 8H1
Method: as §1, with “A” for “Each of the 369 types of human olfactory receptors was expressed in HEK293 cells. A”
as §2
(§6) Cell culturing was performed for four hours in a CO2-incubator, whereby the luciferase gene sufficiently expressed in the cells. Luciferase activity was measured by means of a Dual-Glo™ luciferase assay system (promega) according to an instruction manual thereof. The luminescence value derived from firefly luciferase induced by odorant stimulation was divided by the luminescence value of cells which were not stimulated with odorants. The thus-obtained—called “fold increase”—was employed as an index for response intensity.
(§7) The response inhibition rate of a test substance was calculated as follows. Firstly, luminescence value derived from firefly luciferase induced by stimulation with skatole (X), and luminescence value in cells which expressed the same receptor but were not stimulated with skatole (Y) were determined. By subtracting Y from X, the receptor activity by stimulation with skatole alone (X−Y) was determined. Similarly, the luminescence value induced by stimulation with a mixture of skatole and a test substance (Z) was determined. Through subtracting Y (the luminescence value in cells which expressed the same receptor but were not stimulated with skatole) from Z, the receptor activity (Z−Y) by stimulation with a mixture of skatole and the test substance was obtained. From the thus-obtained receptor activity by stimulation with skatole alone (X−Y) and the receptor activity in the presence of a test material (Z−Y), the response inhibition rate of the test substance was calculated by the following equation: Inhibition rate (%)={1−(Z−Y)/(X−Y)}×100.
(§8) In each case, multiple independent experiments were performed in duplicate, and the average of each experiment was used.

OR2W1 [8] = biological target: T2, OR2W1; assay: Luciferase reporter assay: suppression of the skatole response of OR2W1 expressed in HEK293 cells; format: cell-based; conditions: 4 h; test substance 100 μM mixed with 300 μM skatole, HEK293 cells expressing OR2W1; read-out: Inhibition rate 2W1
Method: as §1, with “A” for “Each of the 369 types of human olfactory receptors was expressed in HEK293 cells. A”
as §2, §6, §7, §8

OR5K1 [9] = biological target: T1, OR5K1; assay: Luciferase reporter assay: suppression of the skatole response of OR5K1 expressed in HEK293 cells; format: cell-based; conditions: 4 h; test substance 100 μM mixed with 300 μM skatole, HEK293 cells expressing OR5K1; read-out: Inhibition rate 5K1
Method: as §1, with “A” for “Each of the 369 types of human olfactory receptors was expressed in HEK293 cells. A”
as §2, §6, §7, §8

OR5P3 [10] = biological target: T4, OR5P3; assay: Luciferase reporter assay: suppression of the skatole response of OR5P3 expressed in HEK293 cells; format: cell-based; conditions: test substance 100 μM mixed with 300 μM skatole, HEK293 cells expressing OR5P3
Method: as §1, with “A” for “Each of the 369 types of human olfactory receptors was expressed in HEK293 cells. A”
as §2, §6, §7, §8

Row | Compound | inhibition at 100 µM (OR8H1 [7]) | inhibition at 100 µM (OR2W1 [8]) | inhibition at 100 µM (OR5K1 [9]) | Inhibition rate 5P3 (OR5P3 [10]) | further results
1 | c1ccc2[nH]ccc2c1 [indole] |  |  |  |  | response of olfactory receptor at different concentration (OR5K1 [1]): exhibited a response; response of olfactory receptor at different concentration (OR2W1 [2]): exhibited a response; response of olfactory receptor at different concentration (OR8H1 [3]): exhibited a response; response of olfactory receptor at different concentration (OR5P3 [4]): exhibited a response
2 | CCCCCC1C(=O)CCC1CC(=O)OC (centres unmarked) [methyl dihydrojasmonate, Methyl 2-penthyl-3-oxocyclopent-1-yl acetate] | 50 to 80% | 50 to 80% | < 20% | B (B >50%) | suppression effect on skatole odor [5]: suppressed skatole odor; suppression effect on hexanoic acid odor [6]: did not suppress hexanoic acid odor
3 | Cc1c[nH]c2ccccc12 [skatole] |  |  |  |  | response of olfactory receptor at different concentration (OR5K1 [1]): dose-dependent response; also recorded: exhibited a response; response of olfactory receptor (fold increase) (OR5K1 [1]; 1 mM odorant, OR5K1, FIG. 1): exhibited response; response of olfactory receptor at different concentration (OR2W1 [2]): dose-dependent response; also recorded: exhibited a response; response of olfactory receptor (fold increase) (OR2W1 [2]; 1 mM odorant, OR2W1, FIG. 1): exhibited response; response of olfactory receptor at different concentration (OR8H1 [3]): dose-dependent response; also recorded: exhibited a response; response of olfactory receptor (fold increase) (OR8H1 [3]; 1 mM odorant, OR8H1, FIG. 1): exhibited response; response of olfactory receptor at different concentration (OR5P3 [4]): dose-dependent response; also recorded: exhibited a response; response of olfactory receptor (fold increase) (OR5P3 [4]; 1 mM odorant, OR5P3, FIG. 1): exhibited response
4 | CC(C)CCCC(C)CCO (centres unmarked) [tetrahydrogenol, 3,7-Dimethyl-1-octanol] | > 80% | 20 to 50% | 50 to 80% | B (B >50%) | 
5 | Cc1ccc(C(C)C)c(O)c1 [thymol, 5-Methyl-2-(1-methylethyl)-phenol] | 20 to 50% | 20 to 50% | > 80% | A (A >80%) | 
6 | C=C1CCCC(C)(C)C1C=CC(=O)CC (centres unmarked) [γ-methylionone, 1-(2,2-Dimethyl-6-methylencyclohexyl)-1-penten-3-one] | 50 to 80% | 50 to 80% | 50 to 80% | C (C >20%) | 
7 | CCCCCCCC1CCC(=O)O1 (centres unmarked) [γ-undecalactone, 5-Heptyl dihydro-2(3H)-furanone] | 50 to 80% | 50 to 80% | 50 to 80% | B (B >50%) | 
8 | CC=CC(=O)C1C(C)C=CCC1(C)C (centres unmarked) [δ-damascones, 1-(2,6,6-Trimethyl-3-cyclohexenyl)-2-buten-1-one] | 20 to 50% | 20 to 50% | 20 to 50% | C (C >20%) | 
